Assay results taken from US9260397B2, “Salts comprising aryl-alkyl-substituted imidazolium and triazolium cations and the use thereof” (TECHNISCHE UNIVERSITAET DRESDEN, priority 2008, dated 2016).

Key:
[1] = Thermal stability (decomposition point); type: physicochemical
[2] = Solubility in ether or THF; type: physicochemical
Method: To 80 mg 1-mesityl-3-tetradecyl imidazolium tetrafluoroborate (Example 97) 4 ml diethylether or 2 ml tetrahydrofuran are added.

| Compound | Decomposition point [1] | solubility in tetrahydrofuran ([2]; 80 mg in 2 ml tetrahydrofuran) | solubility in diethylether ([2]; 80 mg in 4 ml diethylether) |
| --- | --- | --- | --- |
| 1-mesityl-3-propylimidazolium bis(trifluoromethylsulfone)imide [Example 69] | 440 °C |  |  |
| CCCCCCCCCCCCCC[n+]1ccn(-c2c(C)cc(C)cc2C)c1.F[B-](F)(F)F [1-mesityl-3-tetradecyl imidazolium tetrafluoroborate] |  | dissolved easily | not dissolved |

The remaining lines, values ahead:

| Decomposition point [1] | solubility in tetrahydrofuran ([2]; 80 mg in 2 ml tetrahydrofuran) | solubility in diethylether ([2]; 80 mg in 4 ml diethylether) | Compound |
| --- | --- | --- | --- |
| 440 °C |  |  | 1-butyl-3-mesitylimidazolium bis(trifluoromethylsulfone)imide [Example 70] |
| 440 °C |  |  | 1-heptyl-3-mesitylimidazolium bis(trifluoromethylsulfone)imide [Example 73] |
| 440 °C |  |  | 1-hexyl-3-mesitylimidazolium bis(trifluoromethylsulfone)imide [Example 72] |
| 440 °C |  |  | 1-mesityl-3-pentylimidazolium bis(trifluoromethylsulfone)imide [Example 71] |
